{"source": "patent US20050196469A1", "about": "“Micronutrient supplement combination for acne treatment and prevention” (priority 2004, published 2005)", "key": {"acneiform eruptions": {"tested_on": "acneiform eruptions", "assay": "Case reports: effect on acneiform eruptions in patients", "format": "in vivo, human", "text": "The effect of the micronutrient/mineral supplement of the present invention on acneiform eruptions is illustrated below.\n1. patient six was a person with a long history of cystic acne vulgaris. They had no history of polycystic ovarian syndrome, ovarian cysts, oligomenorrhea or amenorrhea. Topical benzoyl peroxide and antibiotics provided no relief of their acne. They refused both oral contraceptive use or a trial of the diuretic spironolactone for possible acne benefits. They were contemplating a trial of accutane, when they decided to see an endocrinologist for a possible hormone etiology of their skin condition. Complete blood count, chemistries, thyroid function tests, AM cortisol were normal. Vitamin B12 and folate concentrations were normal; the total testosterone was 40 ng and not elevated; the androgenic steroids—DHEAS and androstenedione were normal. The 25 hydroxyvitamin D concentration was <5 ng/ml and intact parathyroid hormone (PTH) was elevated at 69 pg/ml (normal up to 65 pg). […] At four months, the 25 vitamin D concentration was 31 ng/ml and the total vitamin D3 was reduced to 2000 IU daily.\n2. patient two was a person with chronic fatigue, inability to lose weight and severe chronic acne vulgaris unresponsive to topical treatments. They had been on Accutane multilple times but their skin improvement was transient with continual periodic acne eruptions. […] They were prescribed vitamin D3 at 4000 IU daily with calcium carbonate (elemental calcium) at 1500 mg; folate 2000 IU; vitamin B6 at 50 mcg and vitamin B12 at 500 mcg daily (B12 was prescribed at 500 mcg for 2 weeks only because of B12 deficiency) and then lowered to 50 mcg daily). A repeat 25 vitamin D level at 3 months was 30 ng and the total daily vitamin D was then lowered to 2000 IU daily; repeat B12 level was normal.\n3. patient one was a person with a known history of oligomenorrhea/amenorrhea. Their menstrual cycles had been irregular with fewer than 8 cycles per year. Oral contraceptives prescribed 5 years ago normalized their menstrual cycles. […]"}, "[1]": {"settings": "oral ingestion; cited from earlier work"}}}
{"smiles": "CC1=C(/C=C/C(C)=C/C=C/C(C)=C\\C(=O)O)C(C)(C)CCC1", "note": "[Accutane]", "values": [{"measurement": "effect on acne", "setting": "acneiform eruptions; patient one, earlier and current treatment", "value": "without success"}, {"measurement": "skin improvement", "setting": "acneiform eruptions; patient two, earlier treatment, multiple courses", "value": "transient"}]}
{"smiles": "O=C(OOC(=O)c1ccccc1)c1ccccc1", "note": "[benzoyl peroxide]", "values": [{"measurement": "relief of acne", "setting": "acneiform eruptions; patient six, earlier topical treatment", "value": "no relief"}]}
{"smiles": "C=C1CC[C@H](O)C/C1=C/C=C1\\CCC[C@]2(C)[C@@H]([C@H](C)CCCC(C)C)CC[C@@H]12", "note": "[cholecalciferol]", "values": [{"measurement": "daily dose at which toxicity occurs", "setting": "[1]", "value": "40,000 IU"}]}
